According to patent publication US11202787B2, “Use of ACTH in assessment and prophylactic treatment of hypokalemia associated with glucocorticoid receptor modulator treatment of Cushing's syndrome patients” (Corcept Therapeutics, Inc., priority 2018, dated 2021):
Read-outs that look alike come from different tables or passages of the source.

Experiments:
[1] = system: subjects in an Alzheimer's study; experiment: Alzheimer's study: hypokalemia; type: in vivo, human
From the text: Clinically meaningful hypokalemia (≤3.1) has been reported in 16 of 821 (1.9%) mifepristone treated subjects (12 in completed double blind PMD trials, and 4 in a completed Alzheimer's trial), and in 5 of 626 (0.8%) placebo treated subjects in completed PMD trials.

[2] = system: Cushing's syndrome patients; details: in vivo
Procedure: The risk of experiencing at least one episode of hypokalemia (potassium level <3.5 mEq/L) after 7 to 14 Days of exposure to KORLYM (mifepristone) was evaluated using stepwise multivariable logistic regression and single-variable logistic regression models. The following independent factors were evaluated for potential association with hypokalemia based on the biology of the disease: total cortisol at Day 1, ACTH at Day 1, and potassium level at Day 1.
The risk of experiencing at least one episode of hypokalemia (potassium level <3.5 mmol/L) after 28 Days of exposure to KORLYM was evaluated using stepwise multivariable logistic regression and single-variable logistic regression models. The following independent factors were evaluated for potential association with hypokalemia based on the biology of the disease: total cortisol at Day 1 and Day 14 (cort_01 and cort_14), ACTH at Day 1 and Day 14 (ACTH_01 and ACTH_14), and potassium levels at Day 1 and Day 14 (K_01 and K_14).
Patients were defined to have severe/recurrent hypokalemia for this analysis if they had at least one value of potassium of 2.5 mmol/L or lower, or if they had recurrent hypokalemia (hypokalemia occurring during multiple visits after Day 14 visit).
The Cushing's syndrome study reported herein was conducted in accordance with the Declaration of Helsinki and Good Clinical Practice (GCP) according to International Conference on Harmonization (ICH) guidelines.
Dosing Schedule Dosing was started with 300 mg of mifepristone once per day for 14 days. After 14 days, if no clinical improvement was seen but the drug was well tolerated, the dose of mifepristone was increased to 600 mg once per day. After 4 weeks of dosing at 600 mg once per day, if no clinical improvement was seen but the drug was well tolerated, the dose was increased to 900 mg once per day. Dose escalation was based on weight with the maximum dose no higher than 20 mg/kg/day. […] After 4 weeks of dosing at 900 mg once per day, if no clinical improvement was seen but the drug was well tolerated, the dose was increased to 1200 mg once per day. Study duration was 24 weeks.
Serum electrolytes, including potassium, were measured regularly throughout the study period.
Extensive modeling of low potassium levels among the N=47 subjects was performed to determine the best predictors of low potassium after start of mifepristone. The modeling was based on logistic regressions where the endpoint was categorical Low vs High Potassium levels (Non-Hypokalemic Potassium >3.5 mmol/L vs Hypokalemic Potassium ≤3.5 mmol/L).
Potassium levels were obtained on every subject at either screening or the pre-drug administration baseline visit, and then also at every scheduled post-baseline visit. Potassium levels post-baseline were therefore obtained as early as day 7 and through day 210 (week 30 was the last visit and was the 6 week follow-up visit). ACTH, and cortisol were measured at six visits (week 2 (day 14), week 6 (day 42), week 10 (day 70), week 16 (day 112), and week 24 (day 168) week 6 follow-up (day 210)).

healthy volunteers = experiment: Previous clinical studies in healthy volunteers: adverse events; type: in vivo, human
From the text: Hypokalemia and rash appear to be more common in subjects receiving mifepristone than in the control groups.

SMILES: CC#C[C@]1(O)CC[C@H]2[C@@H]3CCC4=CC(=O)CCC4=C3[C@@H](c3ccc(N(C)C)cc3)C[C@@]21C [mifepristone, 11β-(4-dimethylaminophenyl)-17β-hydroxy-17α-(1-propynyl)-estra-4,9-dien-3-one]
- Clinically meaningful hypokalemia (≤3.1), subjects ([1]; completed Alzheimer's trial): 4
- Hypokalemia in the range of 2.8 to 3.5 mEq/L ([1]; out of 33 subjects, 300 mg per day for 16 weeks): 9 subjects
- developed hypokalemia on or after Day 28 ([2]; both, human): 6.7%
- developed severe/recurrent hypokalemia on or after Day 28 ([2]; both, human): 6.7%
- subjects with a Potassium value ≤3.5 mmol/L at any of the six visits ([2]; both, human): 21 subjects
- subjects with a Potassium value ≤3.5 mmol/L at any post-baseline visit ([2]; both, human): 23 subjects
- Number with Hypokalemia (%) (Potassium ≤ 3.4 mEq/L) ([2]; both, human, 6 week): 7 (14%) Number (%)
- Number with Hypokalemia (%) (Potassium ≤ 3.4 mEq/L) ([2]; both, human, 8 week): 4 (8%) Number (%)
- Number with Hypokalemia (%) (Potassium ≤ 3.4 mEq/L) ([2]; both, human, 10 week): 4 (8%) Number (%)
- Number with Hypokalemia (%) (Potassium ≤ 3.4 mEq/L) ([2]; both, human, 12 week): 3 (6%) Number (%)
- Number with Severe Hypokalemia (%) (Potassium ≤ 2.5 mEq/L) ([2]; both, human, 12 week): 1 (2%) Number (%)
- Number with Hypokalemia (%) (Potassium ≤ 3.4 mEq/L) ([2]; both, human, 16 week): 5 (10%) Number (%)
- Number with Severe Hypokalemia (%) (Potassium ≤ 2.5 mEq/L) ([2]; both, human, 16 week): 1 (2%) Number (%)
- Number with Hypokalemia (%) (Potassium ≤ 3.4 mEq/L) ([2]; both, human, 20 week): 1 (2%) Number (%)
- Number with Hypokalemia (%) (Potassium ≤ 3.4 mEq/L) ([2]; both, human, 24 week): 4 (8%) Number (%)
- Hypokalemia observed ([2]; both, human, 24 weeks): 44%
- No Hypokalemia ([2]; both, human, 24 weeks): 29 (64.4) n (%)
- Non-Severe Hypokalemia ([2]; both, human, 24 weeks): 7 (15.6) n (%)
- Severe/Recurrent Hypokalemia ([2]; both, human, 24 weeks): 9 (20.0) n (%)
- developed hypokalemia after dosing ([2]; both, human, 24 weeks): 42.9%
- Number with Hypokalemia (%) (Potassium ≤ 3.4 mEq/L) ([2]; both, human, 30 week): 3 (6%) Number (%)
- Number with Severe Hypokalemia (%) (Potassium ≤ 2.5 mEq/L) ([2]; both, human, 30 week): 1 (2%) Number (%)
- Number with Hypokalemia (%) (Potassium ≤ 3.4 mEq/L) ([2]; both, human, 1 day): 2 (4%) Number (%)
- Number with Hypokalemia (%) (Potassium ≤ 3.4 mEq/L) ([2]; both, human, 7 day): 2 (4%) Number (%)
- Number of Subjects Hypokalemic <=3.5 mmol/L ([2]; both, human, 14 day): 8
- Number of Subjects Non-Hypokalemic >3.5 mmol/L ([2]; both, human, 14 day): 38
- Number with Hypokalemia (%) (Potassium ≤ 3.4 mEq/L) ([2]; both, human, 14 day): 8 (16%) Number (%)
- Number with Severe Hypokalemia (%) (Potassium ≤ 2.5 mEq/L) ([2]; both, human, 14 day): 1 (2%) Number (%)
- subjects with a Potassium value ≤3.5 mmol/L as early as day 14 ([2]; both, human, 14 days): 8
- subjects with a Potassium value ≤3.5 mmol/L as early as day 14, all post-baseline values ([2]; both, human, 14 days): 11
- Number with Hypokalemia (%) (Potassium ≤ 3.4 mEq/L) ([2]; both, human, 28 day): 10 (20%) Number (%)
- Number of Subjects Hypokalemic <=3.5 mmol/L ([2]; both, human, 42 day): 6
- Number of Subjects Non-Hypokalemic >3.5 mmol/L ([2]; both, human, 42 day): 35
- Number of Subjects Hypokalemic <=3.5 mmol/L ([2]; both, human, 70 day): 6
- Number of Subjects Non-Hypokalemic >3.5 mmol/L ([2]; both, human, 70 day): 30
- Number of Subjects Hypokalemic <=3.5 mmol/L ([2]; both, human, 112 day): 9
- Number of Subjects Non-Hypokalemic >3.5 mmol/L ([2]; both, human, 112 day): 23
- Number of Subjects Hypokalemic <=3.5 mmol/L ([2]; both, human, 168 day): 5
- Number of Subjects Non-Hypokalemic >3.5 mmol/L ([2]; both, human, 168 day): 37
- Number of Subjects Hypokalemic <=3.5 mmol/L ([2]; both, human, 210 day): 3
- Number of Subjects Non-Hypokalemic >3.5 mmol/L ([2]; both, human, 210 day): 37
- patients with at least one potassium value of 2.5 mmol/L or lower [2]: two
- severity of hypokalemia [2]: mild to moderate
- subjects with a day 7 Potassium value ≤3.5 mmol/L [2]: three
- subjects with reported treatment emergent adverse events (TEAEs) of decreased blood potassium [2]: Seventeen
- frequently reported adverse events (healthy volunteers; previous clinical studies, healthy volunteers): headache, gastrointestinal symptoms including diarrhea, nausea and vomiting, and rash
- Hypokalemia and rash versus control groups (healthy volunteers; subjects receiving mifepristone vs control groups): more common
